In brackets after ≈: the same amount, converted by molar mass. Where two headings read alike, the source gives them in different places.
Columns and labels:
[1] = biological target: T1, CYP 1A2 (Homo sapiens, UniProt P05177); experiment: Hepatic toxicity: Phenacetin O-deethylase in human hepatic microsomes
T1 sequence (P05177 1-516): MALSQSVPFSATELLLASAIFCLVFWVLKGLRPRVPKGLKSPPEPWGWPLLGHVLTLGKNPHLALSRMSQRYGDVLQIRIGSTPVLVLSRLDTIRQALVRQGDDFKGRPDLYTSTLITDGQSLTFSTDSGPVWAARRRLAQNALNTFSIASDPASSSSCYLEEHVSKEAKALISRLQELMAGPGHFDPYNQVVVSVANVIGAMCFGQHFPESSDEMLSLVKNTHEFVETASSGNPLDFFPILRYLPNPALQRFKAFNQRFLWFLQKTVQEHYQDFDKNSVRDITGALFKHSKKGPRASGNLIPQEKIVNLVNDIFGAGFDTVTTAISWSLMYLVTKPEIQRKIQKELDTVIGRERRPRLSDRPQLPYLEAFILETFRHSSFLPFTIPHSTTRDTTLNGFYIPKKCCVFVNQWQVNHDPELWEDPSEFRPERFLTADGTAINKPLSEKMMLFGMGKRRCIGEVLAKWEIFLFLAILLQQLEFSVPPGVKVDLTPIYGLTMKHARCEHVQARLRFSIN
Protocol: (§1) After incubating at 37° C. for 20 min, 200 μl of each resulting solution was mixed with 100 μl of acetonitrile, and analyzed with LC-MS (LC column: Luna2 C8, 2×100 mm, flow velocity: 0.2 ml/min, MS system: Quattro LC (micromass)) using a 5% MeOH aqueous solution containing 0.1% formic acid as an eluent.

[2] = biological target: T2, CYP 2A6 (Homo sapiens, UniProt P11509); experiment: Hepatic toxicity: Coumarin 7-hydroxylase in human hepatic microsomes
T2 sequence (P11509 1-494): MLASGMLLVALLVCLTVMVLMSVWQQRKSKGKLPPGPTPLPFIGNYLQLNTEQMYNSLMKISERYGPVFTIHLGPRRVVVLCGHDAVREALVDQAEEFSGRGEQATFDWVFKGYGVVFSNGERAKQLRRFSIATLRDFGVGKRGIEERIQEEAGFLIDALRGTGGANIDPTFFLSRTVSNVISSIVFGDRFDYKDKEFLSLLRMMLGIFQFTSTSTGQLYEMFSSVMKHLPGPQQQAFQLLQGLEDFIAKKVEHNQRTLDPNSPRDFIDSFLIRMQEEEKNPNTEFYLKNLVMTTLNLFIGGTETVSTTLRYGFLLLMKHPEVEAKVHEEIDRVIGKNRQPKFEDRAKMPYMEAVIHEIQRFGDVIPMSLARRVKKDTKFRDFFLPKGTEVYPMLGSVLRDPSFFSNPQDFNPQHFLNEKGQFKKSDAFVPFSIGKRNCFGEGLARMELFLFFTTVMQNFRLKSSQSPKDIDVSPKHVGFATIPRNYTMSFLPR
Protocol: as §1

[3] = biological target: CYP 2C9 (Homo sapiens, UniProt P11712); experiment: Hepatic toxicity: Diclofenac 4′-hydroxylase in human hepatic microsomes
Protocol: as §1

[4] = biological target: CYP 3A4 (Homo sapiens, UniProt P08684); experiment: Hepatic toxicity: Midazolam 1′-hydroxylase in human hepatic microsomes; conditions: read-out: IC50 Midazolam 1′-hydroxylase CYP 3A4; human hepatic microsomes 0.5 mg/ml, 37° C., 20 min, LC-MS
Protocol: as §1

[5] = biological target: CYP 2C19 (Homo sapiens, UniProt P33261); experiment: Hepatic toxicity: Mephenytoin 4-hydroxylase in human hepatic microsomes
Protocol: as §1

[6] = biological target: CYP 2D6 (Homo sapiens, UniProt P10635); experiment: Hepatic toxicity: Bufuralol 1′-hydroxylase in human hepatic microsomes
Protocol: as §1

[7] = biological target: T3, CYP 2C8 (Homo sapiens, UniProt P10632); experiment: Hepatic toxicity: Paclitaxel 6 α-hydroxylase in human hepatic microsomes
T3 sequence (P10632 1-490): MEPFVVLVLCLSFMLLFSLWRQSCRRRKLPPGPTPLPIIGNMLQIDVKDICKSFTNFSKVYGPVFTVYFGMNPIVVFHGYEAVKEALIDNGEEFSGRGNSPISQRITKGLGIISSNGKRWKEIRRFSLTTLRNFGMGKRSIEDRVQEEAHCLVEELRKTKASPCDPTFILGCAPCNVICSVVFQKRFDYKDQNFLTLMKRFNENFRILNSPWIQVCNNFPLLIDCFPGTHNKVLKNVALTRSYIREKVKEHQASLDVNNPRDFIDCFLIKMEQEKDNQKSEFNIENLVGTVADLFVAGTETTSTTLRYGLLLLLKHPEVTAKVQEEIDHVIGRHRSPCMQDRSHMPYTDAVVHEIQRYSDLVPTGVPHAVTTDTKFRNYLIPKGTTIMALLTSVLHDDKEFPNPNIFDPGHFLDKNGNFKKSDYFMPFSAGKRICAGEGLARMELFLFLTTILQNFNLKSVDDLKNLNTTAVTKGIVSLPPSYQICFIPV
Protocol: as §1

[8] = system: Candida albicans MYA-573; experiment: In vitro antifungal activity, microbroth dilution (MIC80); format: cell-based; conditions: lowest concentration reducing growth by 80% relative to untreated control; RPMI-1640, 35° C.
Protocol: (§2) Sabourad Dextrose Agar (Difco), YM Agar or Potato Dextrose Agar was used as a culture medium according to ATCC information, and RPMI-1640 broth (Sigma. Co. w/L-glutamine, wo/NaHCO3)(0.165 M MOPS, pH 7.0), as a dilution medium. […] In the case of yeasts, the turbidity (light absorbance) of the suspension was adjusted to 0.108 at 530 nm, and then the suspension was diluted 1000-fold with sterile RPMI-1640 liquid medium to 1.0103˜5.0103 CFU/ml. The turbidity of fungi was adjusted to 80˜82% and the suspension was diluted 50-fold to 0.4102˜0.5104 CFU/ml. […] 0.1 ml portions of the test solutions were added to the wells of a sterile 96 well plate. Then, 0.1 ml portions of each test strain solutions were added successively to the wells and the plate was incubated at 35° C. for […]. Minimal inhibitory concentration (MIC80) of each compound was determined as the lowest concentration of the test compounds required to reduce growth by 80% relative to a control strain not treated.

[9] = system: Candida albicans ATCC 10231; experiment: as above; format: cell-based; conditions: lowest concentration reducing growth by 80% relative to untreated control; RPMI-1640, 35° C.
Protocol: as §2

[10] = system: A. fumigatus ATCC 16424; experiment: as above; format: cell-based; conditions: lowest concentration reducing growth by 80% relative to untreated control; RPMI-1640, 35° C.
Protocol: as §2

[11] = system: C. neoformans ATCC 36556; experiment: as above; format: cell-based; conditions: lowest concentration reducing growth by 80% relative to untreated control; RPMI-1640, 35° C.
Protocol: as §2

[12] = system: Candida krusei ATCC 6258; experiment: as above; format: cell-based; conditions: lowest concentration reducing growth by 80% relative to untreated control; RPMI-1640, 35° C.
Protocol: as §2

[13] = system: ICR mice; experiment: Toxicity of oral administration; format: in vivo; conditions: oral administration in DMSO, observed over 2 weeks
Protocol: Specific pathogen-free ICR mice, 2 females and 2 males were used for the each testing. The compound of Example 40 of the present invention was dissolved in DMSO and the solution was orally administered in doses of 62, 125, 250, 500, 1,000 and 2,000 mg of the compound/kg of the body weight (10 ml of the sample volume/kg of the body weight).

CYP 2C19, sequence (P33261 whole entry): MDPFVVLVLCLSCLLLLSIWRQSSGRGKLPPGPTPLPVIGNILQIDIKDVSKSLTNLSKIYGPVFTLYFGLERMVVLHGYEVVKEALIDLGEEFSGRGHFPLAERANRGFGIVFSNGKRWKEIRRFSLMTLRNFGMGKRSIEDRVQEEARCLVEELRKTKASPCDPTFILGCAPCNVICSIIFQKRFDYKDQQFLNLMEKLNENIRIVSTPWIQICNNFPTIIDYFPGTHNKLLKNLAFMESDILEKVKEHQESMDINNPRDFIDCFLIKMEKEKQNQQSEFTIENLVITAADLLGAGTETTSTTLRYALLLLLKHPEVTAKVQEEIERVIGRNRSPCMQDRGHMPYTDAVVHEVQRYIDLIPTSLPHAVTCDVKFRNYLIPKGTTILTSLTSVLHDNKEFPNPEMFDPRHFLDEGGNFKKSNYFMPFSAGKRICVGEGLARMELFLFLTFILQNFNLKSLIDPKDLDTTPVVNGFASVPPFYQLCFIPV
CYP 2D6, sequence (P10635 whole entry): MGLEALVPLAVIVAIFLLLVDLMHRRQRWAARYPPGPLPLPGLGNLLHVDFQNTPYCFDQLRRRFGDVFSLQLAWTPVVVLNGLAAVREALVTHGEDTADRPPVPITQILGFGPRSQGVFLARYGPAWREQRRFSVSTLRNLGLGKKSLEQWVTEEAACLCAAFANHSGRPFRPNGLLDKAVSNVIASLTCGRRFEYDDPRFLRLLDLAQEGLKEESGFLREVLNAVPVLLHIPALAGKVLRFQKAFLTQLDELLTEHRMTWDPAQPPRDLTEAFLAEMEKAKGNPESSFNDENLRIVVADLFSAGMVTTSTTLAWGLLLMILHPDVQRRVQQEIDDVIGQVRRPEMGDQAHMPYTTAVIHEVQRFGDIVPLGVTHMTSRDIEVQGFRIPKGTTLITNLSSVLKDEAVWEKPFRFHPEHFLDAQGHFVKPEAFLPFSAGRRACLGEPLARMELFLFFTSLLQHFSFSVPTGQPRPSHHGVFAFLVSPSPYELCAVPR
CYP 2C9, sequence (P11712 whole entry): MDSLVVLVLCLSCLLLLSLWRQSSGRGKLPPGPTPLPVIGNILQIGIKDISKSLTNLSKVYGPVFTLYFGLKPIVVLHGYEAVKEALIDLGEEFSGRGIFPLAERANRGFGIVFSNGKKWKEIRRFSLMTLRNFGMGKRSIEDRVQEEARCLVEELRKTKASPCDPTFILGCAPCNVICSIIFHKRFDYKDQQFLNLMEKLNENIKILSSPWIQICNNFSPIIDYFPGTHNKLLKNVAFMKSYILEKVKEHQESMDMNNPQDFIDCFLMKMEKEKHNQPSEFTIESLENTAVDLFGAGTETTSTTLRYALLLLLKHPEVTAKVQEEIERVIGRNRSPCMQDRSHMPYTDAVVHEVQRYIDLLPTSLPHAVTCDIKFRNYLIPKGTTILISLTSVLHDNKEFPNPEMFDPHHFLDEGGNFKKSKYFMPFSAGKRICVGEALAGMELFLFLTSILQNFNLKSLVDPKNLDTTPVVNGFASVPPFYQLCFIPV
CYP 3A4, sequence (P08684 whole entry): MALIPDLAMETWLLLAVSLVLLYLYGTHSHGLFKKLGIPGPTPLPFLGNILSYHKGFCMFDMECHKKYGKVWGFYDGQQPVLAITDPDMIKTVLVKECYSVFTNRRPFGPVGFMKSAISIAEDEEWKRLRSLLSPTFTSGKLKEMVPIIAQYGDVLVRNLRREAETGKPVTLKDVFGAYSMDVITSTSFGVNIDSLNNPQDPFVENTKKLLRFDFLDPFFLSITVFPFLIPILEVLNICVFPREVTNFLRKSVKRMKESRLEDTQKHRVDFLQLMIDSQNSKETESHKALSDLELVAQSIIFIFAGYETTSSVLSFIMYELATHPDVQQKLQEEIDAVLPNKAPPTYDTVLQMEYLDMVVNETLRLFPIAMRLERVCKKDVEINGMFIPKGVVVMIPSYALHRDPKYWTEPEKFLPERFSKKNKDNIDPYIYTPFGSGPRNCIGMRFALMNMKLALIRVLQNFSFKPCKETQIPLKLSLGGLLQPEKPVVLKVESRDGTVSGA

| SMILES | IC50 ([1]; microsomes) [µM] | IC50 ([2]; microsomes) [µM] | IC50 ([3]; microsomes) [µM] | IC50 [4] [µM] | IC50 ([5]; microsomes) [µM] | IC50 ([6]; microsomes) [µM] | IC50 ([7]; microsomes) [µM] | MIC Range (MIC80) Candida albicans MYA-573 [8] | MIC Range (MIC80) Candida albicans ATCC 10231 [9] | MIC Range (MIC80) A. fumigatus ATCC 16424 [10] | MIC Range (MIC80) C. neoformans ATCC 36556 [11] | MIC Range (MIC80) Candida krusei ATCC 6258 [12] | further results |
| --- | --- | --- | --- | --- | --- | --- | --- | --- | --- | --- | --- | --- | --- |
| CC(N1CCN(c2ccc(OC(F)=Cc3cccc(Cl)c3)cc2)C1=O)C(O)(Cn1cncn1)c1ccc(F)cc1F (mixture of isomers) [Example 111] | > 100 | > 100 | > 100 | > 100 | > 100 | > 100 | > 100 | – | – | – | – | – | – |
| CC(n1ccn(-c2ccc(OC(F)=C(c3ccc(Cl)cc3)C(F)(F)F)cc2)c1=O)C(O)(Cn1cncn1)c1ccc(F)cc1F (mixture of isomers) [Example 121] | > 100 | > 100 | > 100 | > 100 | > 100 | > 100 | 41.2 | – | – | – | – | – | – |
| C[C@@H]1[C@H](O)[C@@H](C)/C=C/C=C/C=C/C=C/C=C/C=C/C=C/[C@H](O[C@@H]2O[C@H](C)[C@@H](O)[C@H](N)[C@@H]2O)C[C@@H]2O[C@](O)(C[C@@H](O)C[C@@H](O)[C@H](O)CC[C@@H](O)C[C@@H](O)CC(=O)O[C@H]1C)C[C@H](O)[C@H]2C(=O)O [Amphotericine B, reference compound] | – | – | – | – | – | – | – | 1~2 μg/ml | 0.5~1 μg/ml | 0.5~1 μg/ml | 0.25~1 μg/ml | 1 µg/mL (≈ 1.08 µM) | – |
| CC(OC(F)=C(c1ccccc1)C(F)(F)F)C(O)(Cn1cncn1)c1ccc(F)cc1F (stereo not drawn) [Example 5] | – | – | – | – | – | – | – | >256 µg/mL | 2~4 μg/ml | >16 µg/mL | 4 µg/mL (≈ 8.75 µM) | >16 µg/mL | – |
| COc1cccc(C(=C(F)OC(C)C(O)(Cn2cncn2)c2ccc(F)cc2F)C(F)(F)F)c1 (stereo not drawn) [Example 13] | – | – | – | – | – | – | – | – | >64 µg/mL | >64 µg/mL | 16 µg/mL (≈ 32.8 µM) | >64 µg/mL | – |
| CC(OC(F)=Cc1ccc(Oc2ccccc2)cc1)C(O)(Cn1cncn1)c1ccc(F)cc1F (stereo not drawn) [Example 15] | – | – | – | – | – | – | – | 1 µg/mL (≈ 2.08 µM) | 1 µg/mL (≈ 2.08 µM) | >256 µg/mL | 0.5 µg/mL (≈ 1.04 µM) | 4 µg/mL (≈ 8.31 µM) | – |
| COc1ccc(C(=C(F)Oc2ccc(-c3ncn(C(C)C(O)(Cn4cncn4)c4ccc(F)cc4F)n3)cc2)C(F)(F)F)cc1 (stereo not drawn) [Example 32] | – | – | – | > 100 | – | – | – | – | – | – | – | – | IC50 ([1]; read-out: IC50 Phenacetin O-deethylase CYP 1A2, human hepatic microsomes 0.5 mg/ml, 37° C., 20 min, LC-MS): > 100 µM; IC50 ([2]; read-out: IC50 Coumarin 7-hydroxylase CYP 2A6, human hepatic microsomes 0.5 mg/ml, 37° C., 20 min, LC-MS): > 100 µM; IC50 ([3]; read-out: IC50 Diclofenac 4′-hydroxylase CYP 2C9, human hepatic microsomes 0.5 mg/ml, 37° C., 20 min, LC-MS): > 100 µM; IC50 ([5]; read-out: IC50 Mephenytoin 4-hydroxylase CYP 2C19, human hepatic microsomes 0.5 mg/ml, 37° C., 20 min, LC-MS): > 100 µM; IC50 ([6]; read-out: IC50 Bufuralol 1′-hydroxylase CYP 2D6, human hepatic microsomes 0.5 mg/ml, 37° C., 20 min, LC-MS): > 100 µM; IC50 ([7]; read-out: IC50 Paclitaxel 6 α-hydroxylase CYP 2C8, human hepatic microsomes 0.5 mg/ml, 37° C., 20 min, LC-MS): 19.9 µM |
| CC(n1cnc(-c2ccc(OC(F)=Cc3ccc(Cl)cc3)cc2)n1)C(O)(Cn1cncn1)c1ccc(F)cc1F (stereo not drawn) [Example 40] | > 100 | > 100 | > 100 | > 100 | > 100 | > 100 | 30.1 | – | – | – | – | – | LD50 [13]: approximately 1,750 mg/kg; fetal dose [13]: 1,000˜2,000 mg/kg |
| OC(Cn1cncn1)(Cn1cncn1)c1ccc(F)cc1F [Fluconazole, reference compound] | – | – | – | – | – | – | – | – | 2~4 μg/ml | – | 16~32 μg/ml | 32~64 μg/ml | IC50 [1]: > 100 µM; IC50 [2]: > 100 µM; IC50 [6]: 44.2 µM; IC50 [7]: > 100 µM |
| CC(=O)N1CCN(c2ccc(OCC3COC(Cn4ccnc4)(c4ccc(Cl)cc4Cl)O3)cc2)CC1 (stereo not drawn) [ketoconazole, reference compound] | – | – | – | – | – | – | – | – | – | – | – | – | IC50 [2]: > 100 µM |

Source: patent publication US20080027117A1, “Antifungal Azole Derivatives Having a Fluorovinyl Moiety and Process for the Preparation Thereof” (KOREA RESERACH INSTIITUTE OF CHEMICAL TECHNOLOGY, priority 2003, published 2008)
